US11608335B2, “Somatostatin modulators and uses thereof” (CRINETICS PHARMACEUTICALS, INC., priority 2018, dated 2023)

Molecular target: human somatostatin receptor subtype 5 (Homo sapiens, UniProt P35346)
Assay: cAMP assay for SST5R (inhibition of cAMP via human SST5 receptor)

Chain of human somatostatin receptor subtype 5 (P35346 whole entry): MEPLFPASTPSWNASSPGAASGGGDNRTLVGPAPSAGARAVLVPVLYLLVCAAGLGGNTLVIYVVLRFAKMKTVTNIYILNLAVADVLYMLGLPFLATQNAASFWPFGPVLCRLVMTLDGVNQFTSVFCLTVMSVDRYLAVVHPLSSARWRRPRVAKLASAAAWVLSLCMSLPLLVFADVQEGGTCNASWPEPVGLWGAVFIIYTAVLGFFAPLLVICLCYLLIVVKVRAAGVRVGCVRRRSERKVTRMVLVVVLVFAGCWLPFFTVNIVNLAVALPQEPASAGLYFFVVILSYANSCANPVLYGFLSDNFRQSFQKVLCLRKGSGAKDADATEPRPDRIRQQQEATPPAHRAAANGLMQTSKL

SMILES | EC50 [nM]
Cc1cc(F)cc(-c2cncc(-c3nc4cccc(F)c4n3C)c2N2CC(CN)C2)c1 [Compound 1-25, 1-{1-[3-(7-Fluoro-1-methyl-1H-1,3-benzodiazol-2-yl)-5-(3-fluoro-5-methylphenyl)pyridin-4-yl]azetidin-3-yl}methanamine] | 10 to 100
Cn1c(-c2cncc(-c3cc(F)cc(C#N)c3)c2N2CC[C@H](N)C2)nc2ccccc21 [Compound 2-110, 3-{4-[(3S)-3-aminopyrrolidin-1-yl]-5-(1-methyl-1H-1,3-benzodiazol-2-yl)pyridin-3-yl}-5-fluorobenzonitrile] | 10 to 100
NCC1CN(c2c(-c3nc4cc(F)cc(F)c4[nH]3)cncc2-c2cccc3cc[nH]c23)C1 [Compound 1-36, 1-{1-[3-(4,6-difluoro-1H-1,3-benzodiazol-2-yl)-5-(1H-indol-7-yl)pyridin-4-yl]azetidin-3-yl}methanamine] | 10 to 100
N#Cc1cc(Cl)cc(-c2cncc(-c3nc4cccc(F)c4[nH]3)c2N2CC[C@H](N)C2)c1 [Compound 2-5, 3-{4-[(3S)-3-aminopyrrolidin-1-yl]-5-(4-fluoro-1H-1,3-benzodiazol-2-yl)pyridin-3-yl}-5-chlorobenzonitrile] | 10 to 100
N#Cc1cc(F)cc(-c2cncc(-c3nc4cccc(F)c4[nH]3)c2N2CCC(N)(C(F)(F)F)C2)c1 (stereo not drawn) [Compound 2-78, 3-{4-[3-amino-3-(trifluoromethyl)pyrrolidin-1-yl]-5-(4-fluoro-1H-1,3-benzodiazol-2-yl)pyridin-3-yl}-5-fluorobenzonitrile] | 100 to 1000
NC(=O)c1cccc(-c2cncc(-c3nc4cccc(F)c4[nH]3)c2N2CCC(N)(C(F)(F)F)C2)c1 (stereo not drawn) [Compound 2-64, 3-{4-[3-amino-3-(trifluoromethyl)pyrrolidin-1-yl]-5-(4-fluoro-1H-1,3-benzodiazol-2-yl)pyridin-3-yl}benzamide] | > 1000
N#Cc1cc(-c2cncc(-c3nc4cccc(F)c4[nH]3)c2N2CC[C@H](N)C2)ccc1O [Compound 2-36, 5-{4-[(3S)-3-aminopyrrolidin-1-yl]-5-(4-fluoro-1H-1,3-benzodiazol-2-yl)pyridin-3-yl}-2-hydroxybenzonitrile] | 100 to 1000
CCCn1c(-c2cncc(-c3cc(F)cc(C#N)c3)c2N2CC[C@H](N)C2)nc2ccccc21 [Compound 2-111, 3-{4-[(3S)-3-aminopyrrolidin-1-yl]-5-(1-propyl-1H-1,3-benzodiazol-2-yl)pyridin-3-yl}-5-fluorobenzonitrile] | 10 to 100
Cc1cc(F)cc(-c2cncc(-c3nc4cccnc4[nH]3)c2N2CC(CN)C2)c1 [Compound 1-23, 1-{1-[3-(3-fluoro-5-methylphenyl)-5-{1H-imidazo[4,5-b]pyridin-2-yl}pyridin-4-yl]azetidin-3-yl}methanamine] | 100 to 1000
CS(=O)(=O)c1cccc(-c2cncc(-c3nc4cccc(F)c4[nH]3)c2N2CC[C@H](N)C2)c1 [Compound 2-58, (3S)-1-[3-(4-fluoro-1H-1,3-benzodiazol-2-yl)-5-(3-methanesulfonylphenyl)pyridin-4-yl]pyrrolidin-3-amine] | 10 to 100
Cc1ccc(F)c2[nH]c(-c3cncc(-c4ccnc(C(N)=O)c4)c3N3CC[C@H](N)C3)nc12 [Compound 2-107, 4-[(3S)-3-aminopyrrolidin-1-yl]-5-(7-fluoro-4-methyl-1H-1,3-benzodiazol-2-yl)-[3,4′-bipyridine]-2′-carboxamide] | > 1000
Cc1ccccc1-c1cncc(-c2nc3cc(F)cc(F)c3[nH]2)c1N1CC(CN)C1 [Compound 1-30, 1-{1-[3-(4,6-difluoro-1H-1,3-benzodiazol-2-yl)-5-(2-methylphenyl)pyridin-4-yl]azetidin-3-yl}methanamine] | 10 to 100
Cc1ccc(-c2cncc(-c3nc4cc(F)cc(F)c4[nH]3)c2N2CC(CN)C2)cc1 [Compound 1-31, 1-{1-[3-(4,6-difluoro-1H-1,3-benzodiazol-2-yl)-5-(4-methylphenyl)pyridin-4-yl]azetidin-3-yl}methanamine] | 10 to 100
CNC(=O)c1cccc(-c2cncc(-c3nc4cccc(F)c4[nH]3)c2N2CCC(C)(N)C2)c1 (stereo not drawn) [Compound 2-19, 3-[4-(3-amino-3-methylpyrrolidin-1-yl)-5-(4-fluoro-1H-1,3-benzodiazol-2-yl)pyridin-3-yl]-N-methylbenzamide] | 10 to 100
N#Cc1cccc(-c2cncc(-c3nc4c(C(=O)O)cccc4[nH]3)c2N2CC[C@H](N)C2)c1 [Compound 2-82, 2-{4-[(3S)-3-aminopyrrolidin-1-yl]-5-(3-cyanophenyl)pyridin-3-yl}-1H-1,3-benzodiazole-4-carboxylic acid] | > 1000

Other lines, results leading:

EC50 [nM] | SMILES
< 10 | Cn1c(-c2cncc(-c3ccc(F)c(C#N)c3)c2N2CC[C@H](N)C2)nc2cccc(Cl)c21 [Compound 2-133, 5-{4-[(3S)-3-aminopyrrolidin-1-yl]-5-(7-chloro-1-methyl-1H-1,3-benzodiazol-2-yl)pyridin-3-yl}-2-fluorobenzonitrile]
< 10 | Cc1cccc2nc(-c3cncc(-c4cccc(C(N)=O)c4F)c3N3CCC(C)(N)C3)[nH]c12 (stereo not drawn) [Compound 2-138, 3-[4-(3-amino-3-methylpyrrolidin-1-yl)-5-(4-methyl-1H-1,3-benzodiazol-2-yl)pyridin-3-yl]-2-fluorobenzamide]
< 10 | Cn1c(-c2cncc(-c3cccc(C#N)c3)c2N2CC[C@](C)(N)C2)nc2c(F)cccc21 [Compound 2-153, 3-{4-[(3S)-3-amino-3-methylpyrrolidin-1-yl]-5-(4-fluoro-1-methyl-1H-1,3-benzodiazol-2-yl)pyridin-3-yl}benzonitrile]
< 10 | NCC1CN(c2c(-c3cc(F)c(F)c(F)c3)cncc2-c2nc3cc(F)cc(F)c3[nH]2)C1 [Compound 1-48, 1-{1-[3-(4,6-difluoro-1H-1,3-benzodiazol-2-yl)-5-(3,4,5-trifluorophenyl)pyridin-4-yl]azetidin-3-yl}methanamine]
< 10 | N#Cc1cc(F)cc(-c2cncc(-c3nc4cc(F)cc(F)c4[nH]3)c2N2CC(CN)C2)c1 [Compound 1-34, 3-{4-[3-(aminomethyl)azetidin-1-yl]-5-(4,6-difluoro-1H-1,3-benzodiazol-2-yl)pyridin-3-yl}-5-fluorobenzonitrile]
< 10 | CC(N)C1CN(c2c(-c3nc4cc(F)cc(F)c4[nH]3)cncc2-c2cccc(F)c2Cl)C1 (stereo not drawn) [Compound 1-74, 1-{1-[3-(2-chloro-3-fluorophenyl)-5-(4,6-difluoro-1H-1,3-benzodiazol-2-yl)pyridin-4-yl]azetidin-3-yl}ethan-1-amine]
< 10 | Cc1ccc2nc(-c3cncc(-c4cc(F)cc(Cl)c4)c3N3CC[C@H](N)C3)[nH]c2c1 [Compound 2-102, (3S)-1-[3-(3-chloro-5-fluorophenyl)-5-(5-methyl-1H-1,3-benzodiazol-2-yl)pyridin-4-yl]pyrrolidin-3-amine]
< 10 | Cc1cccc2[nH]c(-c3cncc(-c4ccnc(C(N)=O)c4)c3N3CC[C@](C)(N)C3)nc12 [Compound 2-156, 4-[(3S)-3-amino-3-methylpyrrolidin-1-yl]-5-(4-methyl-1H-1,3-benzodiazol-2-yl)-[3,4′-bipyridine]-2′-carboxamide]
< 10 | Cc1cc(C)c2[nH]c(-c3cncc(-c4ccc(F)c(C#N)c4)c3N3CC[C@](C)(N)C3)nc2n1 [Compound 2-174, 5-{4-[(3S)-3-amino-3-methylpyrrolidin-1-yl]-5-{5,7-dimethyl-1H-imidazo[4,5-b]pyridin-2-yl}pyridin-3-yl}-2-fluorobenzonitrile]
